US20080138461A1, “Lactobacillus buchneri strain LN1297 and its use to improve aerobic stability of silage” (Pioneer Hi-Bred International, Inc., priority 2006, published 2008)

Assay: Aerobic stability of grass silage (method of Honig), PVC silos
Parameters: species or system ryegrass
Procedure: Second cut ryegrass was harvested at PLNC. The grass was determined to have an approximate dry matter of 35%.
Inoculation: Individual strains were supplied as fresh grown overnight culture. Cultures were adjusted to a standard concentration of 5.0×10^7 CFU/mL and applied using a syringe at a rate of 2.2 mL/kg of forage. The application rate for all strains was 1.1×10^5 CFU/g forage. Propionic acid (88%) was applied at a rate of 4.4 mL/kg fresh forage.
PVC Silos: PVC silos were filled at a packing density of 0.288 kg DM/silo (100 kg DM/m^3); approximately 0.82-0.95 kg/silo. Silos were air infused for 24 hours on days 28 and 42, and opened after 50-60 days of ensiling.
Aerobic Stability: The method of Honig (Proc. Of the Eurobac. Conf., P. Lingvall and S. Lindgren (ed.) (12-16 Aug. 1986) Swed. Univ. of Agric. Sci. Grass and Forage Report No. 3-1990. Pp. 76-81. Uppsala, Sweden) was used for measuring aerobic stability (see Table 1). ROT is defined as the time, in hours, for the silage to heat 1.7° C. after exposure to air. Cumm_DD is the integral value of the area between the time ROT is attained and the end of the experiment. Aerobic dry matter loss (% dry matter) was determined relating the increase in temperature and the time to energy losses occurring in the silage.

[1] = average across replicate studies A, B, C

- Improvement of aerobic stability over the control (versus control): 96 h
SMILES: CCC(=O)O [Propionic Acid, Propionic acid]
- Aerobic deterioration versus control grass silages: significantly less aerobic deterioration
- Aerobic Dry Matter Loss, Avg. [1]: 0.43 % dry matter
- ROT (time for the silage to heat 1.7° C. after exposure to air), Avg. [1]: 127 h
- Aerobic Dry Matter Loss, replicate study A (replicate A): 0.29 % dry matter
- ROT (time for the silage to heat 1.7° C. after exposure to air), replicate study A (replicate A): 137 h
- Aerobic Dry Matter Loss, replicate study B (replicate B): 0 % dry matter
- ROT (time for the silage to heat 1.7° C. after exposure to air), replicate study B (replicate B): 160 h
- Aerobic Dry Matter Loss, replicate study C (replicate C): 1.01 % dry matter
- ROT (time for the silage to heat 1.7° C. after exposure to air), replicate study C (replicate C): 86 h
